This note sets out measurements from patent publication US4232014A, “Aminoalkylindans and use as hypotensive agents” (Marion Laboratories, Inc., priority 1979, dated 1980).

The test system of one data set is animals. As to the kind of experiment: Anti-hypertensive effect when administered to animals parenterally or orally. It is filed as in vivo. The settings on record: in words.
Data set [1] has as its system Desoxycorticosterone Hypertensive Rats. The data set is described as follows: Cardiovascular activity (blood pressure and heart rate) in desoxycorticosterone hypertensive rats. It is filed as in vivo, male Charles River rats.
Data set [2] shares this test system. Described as above. In kind it is in vivo, male Charles River rats. The settings on record: 24 hr. As to the method:
The indirect measurements of blood pressure and heart rate were determined in male Charles River rats made hypertensive (systolic blood pressure >159 mm Hg) by subcutaneously implanting a wax-formulated pellet containing 10 mg of desoxycorticosterone acetate. Systolic blood pressure was measured in the caudal arteries of prewarmed (40° C.), unanesthetized, restrained animals by a pneumatic pulse transducer placed distal to an automated tail pressure cuff and was recorded on a physiograph. Heart rate was determined from the amplified pulse waves recorded during the blood pressure measurements. Prior to the actual experiments, animals were accustomed to the measurement handling procedure several times during the preceding weeks.
Control systolic blood pressure and heart rates were determined in a group of usually six hypertensive rats on each day. A compound for evaluation was administered by intraperitoneal injection either in solution or as a suspension at 24 hr. intervals following injection. Mean values of the group for these parameters at a particular measurement period were calculated, and then the mean difference from control, along with its associated standard error, was calculated for each period. The statistical significance of the changes produced by a compound was tested by an analysis of variance and the Newman-Keuls a posteriori test when F was significant. A probability level of 0.05 or less was accepted as a significant change.
All compounds synthesized in this series, except V, were tested at a dosage level of 100 mg/kg. […] Another group of hypertensive rats was injected with 0.9% NaCl in a dose of 1 ml/kg. The latter group was included as a placebo group for the entire study.

A further data set has as its system Mice. The data set is described as follows: Acute toxicity determination in mice (ALD50, ip). In kind it is in vivo, female Swiss-Webster mice. The settings on record: in words, compared with the other compounds of the series. The protocol:
(§1) Biological Methods--Acute toxicity determinations were performed in female Swiss-Webster mice, 15-24 g. Compounds were administered in aqueous solutions or as suspensions in 1% tragacanth by the intraperitoneal route to groups of three or more mice.

The nature of data set [3]: Acute toxicity determination in mice (ALD50, ip). It is filed as in vivo, female Swiss-Webster mice. The settings on record: in vivo, mouse, ip, 24 hours after administration. The protocol:
as §1

[4] abbreviates: 10 mg/kg ip, solution in distilled water, 1 hr.
Where [5] appears, read: 10 mg/kg ip, solution in distilled water, 2 hr.
Where [6] appears, read: 10 mg/kg ip, solution in distilled water, 4 hr.
Setting [7] is: 10 mg/kg ip, solution in distilled water, 24 hr.
Where [8] appears, read: 25 mg/kg ip, solution in distilled water, 4 hr.
[9] abbreviates: 100 mg/kg ip, suspension in 1% tragacanth, 1 hr.
Setting [10] is: 100 mg/kg ip, suspension in 1% tragacanth, 2 hr.
Where [11] appears, read: 100 mg/kg ip, suspension in 1% tragacanth, 4 hr.
Where [12] appears, read: 100 mg/kg ip, suspension in 1% tragacanth.
Where [13] appears, read: 50 mg/kg ip, suspension in 1% tragacanth, 1 hr.
Where [14] appears, read: 50 mg/kg ip, suspension in 1% tragacanth, 2 hr.
Setting [15] is: 50 mg/kg ip, suspension in 1% tragacanth, 4 hr.
[16] abbreviates: 50 mg/kg ip, suspension in 1% tragacanth, 24 hr.

Some results are limits rather than exact numbers.

Consider `Cc1cc2c(cc1CCN)CCC2` [5-aminoethyl-6-methylindan], for which the hypotensive properties result with animals is “has hypotensive properties”. In the data set with animals (as base or acid addition salt, animals, parenterally or orally), the anti-hypertensive effect entry was “exert an anti-hypertensive effect”.

By LD50 is commonly meant the dose at which mortality reaches 50%. Higher therefore signals lower toxicity. On to `Cc1cc2c(cc1CCN)CCC2.Cl` [Compound V, 5-Aminoethyl-6-methylindan HCl], for which the “Mean change in heart rate from control ± SE” value is listed as “+32 ± 17 beats per minute” in data set [1] (setting [4]); “+34 ± 14 beats per minute” in data set [1] (setting [5]); “+25 ± 11 beats per minute” in data set [1] (setting [6]); -4 ± 11 beats per minute in data set [1] (setting [7]); “+20 ± 21 beats per minute” in data set [1] (setting [8]); -26 ± 14 beats per minute in data set [2] (25 mg/kg ip, solution in distilled water). Besides, the “Mean change in systolic blood pressure from control ± SE” value in data set [1] (setting [4]) is -24 ± 8 mm Hg; in data set [1] (setting [5]), -24 ± 4 mm Hg; in data set [1] (setting [6]), -15 ± 5 mm Hg; in data set [1] (setting [7]) it was -6 ± 4 mm Hg; in data set [1] (setting [8]), -18 ± 4 mm Hg; in data set [1] (25 mg/kg ip, solution in distilled water, 24 hr) it was -11 ± 2 mm Hg. The “relative toxicity in the mouse” value in the data set on Mice is “relatively more toxic in the mouse”. In addition, in data set [3] (solution in distilled water), the LD50 at 24 h lay in the range of 79 to 89 mg/kg.

Regarding `COc1cc2c(cc1CCNC(=O)c1ccccc1)CCC2` [I, 5-Benzoylaminoethyl-6-methoxyindan], the “Mean change in heart rate from control ± SE” value was -20 ± 23 beats per minute in data set [1] (setting [9]), “+9 ± 30 beats per minute” in data set [1] (setting [10]), -14 ± 18 beats per minute in data set [1] (setting [11]) and -67 ± 22 beats per minute in data set [2] (setting [12]). In addition, the “Mean change in systolic blood pressure from control ± SE” value in data set [1] (setting [9]) is -18 ± 8 mm Hg; in data set [1] (setting [10]), -24 ± 7 mm Hg; in data set [1] (setting [11]), -12 ± 6 mm Hg; in data set [2] (setting [12]), -13 ± 4 mm Hg. The compound also came in with an LD50 at 24 h in data set [3] (suspension in 1% tragacanth) greater than 1000 mg/kg.

`COc1cc2c(cc1CCNC(=O)c1cc(OC)c(OC)c(OC)c1)CCC2` [II, 5-(3,4,5-Trimethoxybenzoyl)aminoethyl-6-methoxyindan]: the “Mean change in heart rate from control ± SE” value in data set [1] (setting [9]) is “+23 ± 28 beats per minute”; in data set [1] (setting [10]) it was “+10 ± 28 beats per minute”; in data set [1] (setting [11]), “+47 ± 29 beats per minute”; in data set [2] (setting [12]) it was -4 ± 10 beats per minute. In addition, the “Mean change in systolic blood pressure from control ± SE” value is -27 ± 8 mm Hg in data set [1] (setting [9]), -35 ± 13 mm Hg in data set [1] (setting [10]), -12 ± 8 mm Hg in data set [1] (setting [11]) and -16 ± 4 mm Hg in data set [2] (setting [12]). The compound also showed an LD50 at 24 h in data set [3] (suspension in 1% tragacanth) greater than 1000 mg/kg.

Consider `COc1cc2c(cc1CCNC(=O)Cc1ccccc1)CCC2` [III, 5-Phenylacetylaminoethyl-6-methoxyindan], for which the “Mean change in heart rate from control ± SE” value is “+13 ± 12 beats per minute” in data set [1] (setting [9]), “+54 ± 25 beats per minute” in data set [1] (setting [10]), “+19 ± 21 beats per minute” in data set [1] (setting [11]) and “+61 ± 12 beats per minute” in data set [2] (setting [12]). Further, the “Mean change in systolic blood pressure from control ± SE” value is recorded as -32 ± 7 mm Hg in data set [1] (setting [9]), -24 ± 5 mm Hg in data set [1] (setting [10]), -21 ± 4 mm Hg in data set [1] (setting [11]) and -13 ± 4 mm Hg in data set [2] (setting [12]). In addition, in data set [3] (suspension in 1% tragacanth), the LD50 at 24 h was in the range of 1000 to 1500 mg/kg.

Regarding `COc1cc2c(cc1CCNC(=O)Cc1ccc(OC)c(OC)c1)CCC2` [IV, 5-(3,4-Dimethoxyphenylacetyl)aminoethyl-6-methoxyindan], the “Mean change in heart rate from control ± SE” value in data set [1] (setting [9]) is on record as “+23 ± 29 beats per minute”; in data set [1] (setting [10]), “+57 ± 31 beats per minute”; in data set [1] (setting [11]) it was “+14 ± 12 beats per minute”; in data set [2] (setting [12]), -27 ± 2 beats per minute. Further, the “Mean change in systolic blood pressure from control ± SE” value in data set [1] (setting [9]) was -10 ± 4 mm Hg; in data set [1] (setting [10]) it was -10 ± 2 mm Hg; in data set [1] (setting [11]), -19 ± 3 mm Hg; in data set [2] (setting [12]), -19 ± 4 mm Hg. Also, the LD50 at 24 h in data set [3] (suspension in 1% tragacanth) lay in the range of 500 to 1000 mg/kg.

As to `C[C@](N)(Cc1ccc(O)c(O)c1)C(=O)O` [Methyldopa, reference compound], the “Mean change in heart rate from control ± SE” value was “+106 ± 26 beats per minute” in data set [1] (setting [13]), “+104 ± 28 beats per minute” in data set [1] (setting [14]), “+31 ± 39 beats per minute” in data set [1] (setting [15]) and -19 ± 12 beats per minute in data set [1] (setting [16]). Besides, the “Mean change in systolic blood pressure from control ± SE” value was -31 ± 4 mm Hg in data set [1] (setting [13]), -50 ±4 mm Hg in data set [1] (setting [14]), -48 ± 6 mm Hg in data set [1] (setting [15]) and -16 ± 5 mm Hg in data set [1] (setting [16]). The “change in mean systolic blood pressure from control levels” value in data set [1] (in words, hypertensive rats, reference standards) is on record as “significant depressions in mean systolic blood pressure from control levels”.

Regarding `COc1ccc(CC(=O)NCCc2cc3c(cc2C)CCC3)cc1OC` [VII, N-(3,4-Dimethoxyphenylacetyl)-5-aminoethyl-6-methylindan], the “Mean change in heart rate from control ± SE” value in data set [1] (setting [9]) was “+43 ± 10 beats per minute”; in data set [1] (setting [10]), “+47 ± 12 beats per minute”; in data set [1] (setting [11]), “+37 ± 15 beats per minute”; in data set [2] (setting [12]) it was “+22 ± 12 beats per minute”. The “Mean change in systolic blood pressure from control ± SE” value in data set [1] (setting [9]) was -2 ± 6 mm Hg; in data set [1] (setting [10]), -4 ± 9 mm Hg; in data set [1] (setting [11]), “+2 ± 5 mm Hg”; in data set [2] (setting [12]), -3 ± 7 mm Hg. Moreover, the LD50 at 24 h in data set [3] (suspension in 1% tragacanth) was greater than 1000 mg/kg.

As to `COc1ccc(CNCCc2cc3c(cc2C)CCC3)cc1OC.Cl` [VIII, N-(3,4-Dimethoxybenzyl)-5-aminoethyl-6-methylindan hydrochloride], the “Mean change in heart rate from control ± SE” value in data set [1] (setting [9]) is reported as -55 ± 17 beats per minute; in data set [1] (setting [10]), 0 ± 14 beats per minute; in data set [1] (setting [11]) it was “+4 ± 8 beats per minute”; in data set [2] (setting [12]), -14 ± 10 beats per minute. The “Mean change in systolic blood pressure from control ± SE” value in data set [1] (setting [9]) is reported as -58 ± 4 mm Hg; in data set [1] (setting [10]), -60 ± 7 mm Hg; in data set [1] (setting [11]), -47 ± 2 mm Hg; in data set [2] (setting [12]) it was -17 ± 2 mm Hg. The compound also gave a median lethal dose (LD50) at 24 h in data set [3] (suspension in 1% tragacanth) of 140 to 178 mg/kg.

Take `Cc1cc2c(cc1CCNC(=O)Cc1ccccc1)CCC2` [VI]: the “Mean change in heart rate from control ± SE” value in data set [1] (setting [9]) is given as “+17 ± 17 beats per minute”; in data set [1] (setting [10]), “+24 ± 11 beats per minute”; in data set [1] (setting [11]), “+23 ± 13 beats per minute”; in data set [2] (setting [12]), “+2 ± 17 beats per minute”. In addition, the “Mean change in systolic blood pressure from control ± SE” value is reported as -7 ± 7 mm Hg in data set [1] (setting [9]), -2 ± 6 mm Hg in data set [1] (setting [10]), -1 ± 7 mm Hg in data set [1] (setting [11]) and -3 ± 10 mm Hg in data set [2] (setting [12]). The compound also came in with a median lethal dose (LD50) at 24 h in data set [3] (suspension in 1% tragacanth) greater than 1000 mg/kg.
